Target: T1, Taste receptor type 2 member 8 (Homo sapiens, UniProt Q9NYW2)
T1 sequence (Q9NYW2 whole entry): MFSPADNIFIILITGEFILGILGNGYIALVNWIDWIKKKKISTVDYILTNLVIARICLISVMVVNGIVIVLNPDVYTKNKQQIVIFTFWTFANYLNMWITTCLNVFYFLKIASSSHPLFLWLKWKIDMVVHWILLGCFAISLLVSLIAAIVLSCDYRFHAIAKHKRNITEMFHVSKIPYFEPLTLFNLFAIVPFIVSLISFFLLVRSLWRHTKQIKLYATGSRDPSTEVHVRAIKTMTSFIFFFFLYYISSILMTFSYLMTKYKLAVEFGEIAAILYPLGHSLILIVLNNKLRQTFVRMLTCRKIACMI
Experiment: Fluorescence Polarization Assays: In another embodiment, Fluorescence Polarization ("FP") based assays may be used to detect and monitor ligand binding. Fluorescence polarization is a versatile laboratory technique for measuring equilibrium binding, nucleic acid hybridization, and enzymatic activity. […] Generally, this technique can be used to measure polarization values of fluorophores from low picomolar to micromolar levels.

IC50: 1.65 µM
Structure (SMILES): Cc1noc(C)c1Cn1cc(N2CCCN(Cc3ccccc3)C2=O)cn1
